In patent US8735414B2 (priority 2009, dated 2014):

What was measured:
[1] = test system: bicistronic HCV replicon (replicon RNA, GenBank Accession No. AJ242654); assay: HCV Replicon Assay; type: cell-based; settings: Hepatitis C virus, 72 h, read-out: Replicon IC50

Row | SMILES | melting point [°C] | IC50 [1] [µM]
1 | Cc1cc(-c2c(C#N)c3cc(F)c(OC(F)F)cc3n2C2CCC2)ncc1S(=O)(=O)N[C@@H](C)C(F)(F)F [compound 822, 6-[3-cyano-1-cyclobutyl-6-(difluoromethoxy)-5-fluoro-1H-indol-2-yl]-4-methyl-N-[(2S)-1,1,1-trifluoropropan-2-yl]pyridine-3-sulfonamide] | 204 to 210 | < 0.5
2 | [2H]C([2H])([2H])c1cc2c(cc1F)c(C#N)c(-c1ccc(S(=O)(=O)N[C@@]([2H])(C)C(F)(F)F)cn1)n2C1CCC1 [compound 1114, 6-[3-cyano-1-cyclobutyl-5-fluoro-6-(1,1,1-trideuterium)methyl-1H-indol-2-yl]-N-[(2S)-1,1,1-trifluoro(2-deuterium)propan-2-yl]pyridine-3-sulfonamide] | 213 to 215 | < 0.5
3 | N#Cc1c(-c2ccc(S(=O)(=O)NC(CF)CF)cn2)n(-c2ccccn2)c2ccc(Cl)cc12 [compound 443, 6-[5-chloro-3-cyano-1-(pyridin-2-yl)-1H-indol-2-yl]-N-(1,3-difluoropropan-2-yl)pyridine-3-sulfonamide] | 187 to 188 | < 0.5
4 | C[C@H](NS(=O)(=O)c1cnc(-c2c(C#N)c3cc(F)ccc3n2CC2CC2)nc1)C(F)(F)F [compound 548, 2-[3-cyano-1-(cyclopropylmethyl)-5-fluoro-1H-indol-2-yl]-N-[(2S)-1,1,1-trifluoropropan-2-yl]pyrimidine-5-sulfonamide] | 175 to 180 | 0.5 to 2
5 | Cc1ccc2c(C#N)c(-c3ccc(S(=O)(=O)N[C@H](C)C(F)(F)F)cn3)n(C3CCC3)c2c1 [compound 192, 6-(3-cyano-1-cyclobutyl-6-methyl-1H-indol-2-yl)-N-[(2R)-1,1,1-trifluoropropan-2-yl]pyridine-3-sulfonamide] | 204 to 208 | < 0.5
6 | Cc1ccc2c(C#N)c(-c3ncc(S(=O)(=O)N[C@@H](C)C(F)(F)F)cn3)n(C(C)C)c2c1 [compound 403, 2-[3-cyano-6-methyl-1-(propan-2-yl)-1H-indol-2-yl]-N-[(2S)-1,1,1-trifluoropropan-2-yl]pyrimidine-5-sulfonamide] | 235 to 236 | 0.5 to 2
7 | CCS(=O)(=O)Nc1ccc(-c2c(C#N)c3ccc(OC(C)C)cc3n2C2CCC2)nn1 [compound 276, N-{6-[3-cyano-1-cyclobutyl-6-(propan-2-yloxy)-1H-indol-2-yl]pyridazin-3-yl}ethanesulfonamide] | 181 to 183 | 2 to 5
8 | CC(C)NS(=O)(=O)c1cnc(-c2c(C#N)c3ccc(OC(F)F)cc3n2C2CCCCC2)nc1 [compound 473, 2-[3-cyano-1-cyclohexyl-6-(difluoromethoxy)-1H-indol-2-yl]-N-(propan-2-yl)pyrimidine-5-sulfonamide] | 176 to 179 | < 0.5
9 | CC(C)NS(=O)(=O)c1ccc(-c2c(C#N)c3cc(OC(F)F)ccc3n2C2CCCC2)nc1 [compound 21, 6-[3-cyano-1-cyclopentyl-5-(difluoromethoxy)-1H-indol-2-yl]-N-(propan-2-yl)pyridine-3-sulfonamide] | 177 to 179 | < 0.5
10 | N#Cc1c(-c2ccc(S(=O)(=O)NC3CC(F)(F)C3)cn2)n(C2CCC2)c2cc(Cl)ccc12 [compound 244, 6-(6-chloro-3-cyano-1-cyclobutyl-1H-indol-2-yl)-N-(3,3-difluorocyclobutyl)pyridine-3-sulfonamide] | 135 to 138 | 2 to 5
11 | CC(C)NS(=O)(=O)c1cnc(-c2c(C#N)c3ccc(C4CC4)cc3n2C2CCC2)nc1 [compound 71, 2-(3-cyano-1-cyclobutyl-6-cyclopropyl-1H-indol-2-yl)-N-(propan-2-yl)pyrimidine-5-sulfonamide] | 192 to 193 | < 0.5
12 | CC(C)(NS(=O)(=O)c1ccc(-c2c(C#N)c3ccc(OC(F)F)cc3n2-c2ncccn2)nc1)C(F)(F)F [compound 663, 6-[3-cyano-6-(difluoromethoxy)-1-(pyrimidin-2-yl)-1H-indol-2-yl]-N-(1,1,1-trifluoro-2-methylpropan-2-yl)pyridine-3-sulfonamide] | 179 to 180 | 0.5 to 2
13 | Cc1ccc2c(c1)c(C#N)c(-c1ncc(S(=O)(=O)N[C@@H](C)C(F)(F)F)cn1)n2CC1CC1 [compound 389, 2-[3-cyano-1-(cyclopropylmethyl)-5-methyl-1H-indol-2-yl]-N-[(2S)-1,1,1-trifluoropropan-2-yl]pyrimidine-5-sulfonamide] | 220 to 223 | 0.5 to 2
14 | Cc1cc2c(cc1F)c(C(N)=O)c(-c1ccc(S(=O)(=O)N[C@@H](C)C(F)(F)F)cn1)n2-c1ncccc1F [compound 902, 5-fluoro-1-(3-fluoropyridin-2-yl)-6-methyl-2-(5-{[(2S)-1,1,1-trifluoropropan-2-yl]sulfamoyl}pyridin-2-yl)-1H-indole-3-carboxamide] | 130 to 138 | 0.5 to 2
15 | Cc1cc2c(C#N)c(-c3ccc(S(=O)(=O)NC(CF)CF)cn3)n(C3CCCC3)c2cc1F [compound 482, 6-(3-cyano-1-cyclopentyl-6-fluoro-5-methyl-1H-indol-2-yl)-N-(1,3-difluoropropan-2-yl)pyridine-3-sulfonamide] | 207 to 211 | < 0.5
16 | Cc1cc(S(=O)(=O)N[C@@H](C)C(F)(F)F)cnc1-c1c(C#N)c2cc(F)c(OC(F)F)cc2n1C1CCC1 [compound 827, 6-[3-cyano-1-cyclobutyl-6-(difluoromethoxy)-5-fluoro-1H-indol-2-yl]-5-methyl-N-[(2S)-1,1,1-trifluoropropan-2-yl]pyridine-3-sulfonamide] | 150 to 155 | < 0.5
17 | C[C@H](NS(=O)(=O)c1cnc(-c2c(C#N)c3ccc(OC(F)F)cc3n2C2CCCCC2)nc1)C1CC1 [compound 471, 2-[3-cyano-1-cyclohexyl-6-(difluoromethoxy)-1H-indol-2-yl]-N-[(1S)-1-cyclopropylethyl]pyrimidine-5-sulfonamide] | 150 to 152 | < 0.5
18 | CCc1cc2c(cc1F)c(C#N)c(-c1ccc(S(=O)(=O)NC(C)(C)C)cn1)n2C1CCC1 [compound 764, N-tert-butyl-6-(3-cyano-1-cyclobutyl-6-ethyl-5-fluoro-1H-indol-2-yl)pyridine-3-sulfonamide] | 186 to 188 | < 0.5
19 | Cc1c(F)cc2c(C#N)c(-c3ccc(S(=O)(=O)NC4(C(F)(F)F)CC4)cn3)n(C3CCCC3)c2c1F [compound 654, 6-(3-cyano-1-cyclopentyl-5,7-difluoro-6-methyl-1H-indol-2-yl)-N-[1-(trifluoromethyl)cyclopropyl]pyridine-3-sulfonamide] | 241 to 246 | < 0.5
20 | C[C@H](NS(=O)(=O)c1cnc(-c2c(C#N)c3ccc(F)cc3n2C2CCCCC2)nc1)C(F)(F)F [compound 411, 2-(3-cyano-1-cyclohexyl-6-fluoro-1H-indol-2-yl)-N-[(2S)-1,1,1-trifluoropropan-2-yl]pyrimidine-5-sulfonamide] | 224 to 226 | 0.5 to 2
